# Measurements taken from patent US8114425B2, “Process for the production of wood-based materials” (LANXESS Deutschland GmbH, priority 2008, dated 2012).
# Tests used:
# [1] = Investigation of the thermal lability of thiacloprid in NaOH solution; type: physicochemical; conditions: NaOH solution pH 13.7
# Procedure: 5 g of NaOH were dissolved in 250 ml of distilled water (pH 13.7) and 100 mg of active substance were added. Stirring was then effected for 15 min at different temperatures. The mixture was extracted twice with methylene chloride, neutralized and evaporated down. The residue was weighed and was analysed by NMR, GC, GC-MS or HPLC.
# [2] = system: Reticulitermes santonensis; test: Termite resistance compulsory test analogous to EN 117 on OSB boards; type: in vivo; conditions: OSB board with 0.00153% thiacloprid, PF glue outer layers, pressed at 190-200° C.; inspection of the surfaces after 8 weeks
# From the text: Pine chips (strands for the production of OSB) whose fine fraction of <6 mm was removed by means of screening were wetted with phenol-formaldehyde glue (PF, manufacturer Georgia Pacific; type GP 155 C 42; pH about 11-13) for the outer layers and with polymethylene diisocyanate glue (PMDI; manufacturer Bayer; type Desmodur 1520 A 20) for the middle layer. The outer and middle layer chips treated in each case were then wetted with an aqueous solution containing 0.5% of thiacloprid and finally in each case with a wax emulsion (Sasolwax Hydrowax 730). The application was effected in each case using an atomizer (spinning disc system) in a chip mixer. The amount of alkaline binder was 4.5% of PF (or 2.5% of PMDI) solid resin mass fraction in the finished OSB board. This corresponds to about 10% mass fraction, based on the chips used, for the PF glue. The aqueous solution containing thiacloprid was used with 2000 ml/m^3 of finished OSB board. At a density of 650 kg/m^3, this corresponds to 0.00153% of thiacloprid, based on the finished OSB board. The proportion of wax was 0.8% by mass, based on the OSB board. The OSB wood composites produced were produced from 60% of PF glue-coated chips as outer layers and 40% of PMDI glue-coated chips as the middle layer in a press at 500 N/cm^2 and with press plate temperatures of 190-200° C. […]
smiles,measurement,setting,value
N#C/N=C1\SCCN1Cc1ccc(Cl)nc1 [thiacloprid],stability in NaOH solution,"[1]; 35° C., 15 min stirring",stable
same,degradation in NaOH solution,"[1]; 75° C., 15 min stirring",100%
same,degradation in NaOH solution (in words),"[1]; 75° C., after only 15 min",completely degraded
same,traces of feeding on test specimen surfaces,[2],No measurable traces of feeding
